Laboratory results as given in US20240165196A1, “Beta-Lactamase Inhibitors” (VIB VZW, priority 2021, published 2024).

What was measured:
[1] = tested on: TEM beta-lactamase in E. coli UZ_TEM104; assay: western blot of inclusion body (IB) fraction for TEM; assay type: cell-based; conditions: 12 μM peptide in PBS, 120 min
Protocol: (§1) FIGS. 3A-3P. […] Three replicates are shown for each condition. […] A single representative image is shown. […] Three replicates are shown for each condition. (FIG. 3E) [Left] […] [Middle] […] [Right] […] A single representative image is shown. […] A single representative image is shown. […] A single representative image is shown. […] A single representative blot is shown. […] 106 cells were analysed for the plot.
(§2) Moreover, we confirmed the presence of the protein in the correct band using mass spectrometry proteomics. We repeated this with a strain expressing SHV-154, blotting with a polyclonal rabbit antibody raised against the recombinant SHV enzyme described above (FIG. 3K).
(§3) The overnight culture of bacteria was centrifuged for 30 min at 4,000×g and cells were washed with physiological water (NaCl 0.9%). Bacterial cells were treated by peptide at the appropriate concentration for at least 2 h at 37 C. The bacterial pellets were washed with 10 mL buffer A (50 mM HEPES, pH 7.5, 300 mM NaCl, 5 mM β-mercaptoethanol, 1.0 mM EDTA) and centrifuged at 4° C. for 30 min at 4,000×g. The supernatant was discarded and 20 mL of buffer B (buffer A plus 1 tablet of the protease and phosphatase Inhibitor Cocktail (ab201119, Abcam, UK) was added to the bacterial pellet. In order to break the cells, a High-Pressure Homogenizer (Glen Creston Ltd) with the pressure set to 20,000-25,000 psi was used on ice, and in addition, the suspensions were sonicated (Branson Digital sonifier 50/60 Hz) on ice with alternating 2 min cycle (15 pulses at 50% power with 30 s pauses on ice, until completing 2 min total sonication time). The lysed cells were centrifuged at 4° C. for 30 min at 11,000×g. The precipitated fraction was afterward re-suspended with 10 mL buffer D (buffer A plus 0.8% (V/V) Triton X-100, 0.1% sodium deoxycholate) and the suspension was sonicated to ensure the pellet is completely dissolved. This step was repeated three times. Centrifugation was performed at 4° C. for 30 min at 11,000×g. Finally, to solubilize IBs, the pellet was suspended in 500 ul of buffer F (50 mM HEPES, pH 7.5, 8.0 M urea) of precipitated fraction.

E. coli SHV-11 = assay: checkerboard assay (FICI), peptide versus penicillin G; assay type: cell-based; conditions: strain with SHV-11; FICI below 0.5 = synergy
From the text: (§4) FIGS. 2A-2M. (FIG. 2A) TEM mutations and their effects on stability (total energy) as predicted by FoldX. […] Dashed line indicates a total energy difference of 0.5 kcal/mol, the FoldX cut-off above which mutations are considered to be destabilizing. (FIG. 2B) Barplot mapping mutations in (FIG. 2A) to the TEM sequence and indicating occurrence. […] The bar heights correspond to the number of times a mutation occurs across different TEM variants (right-hand y-axis). The color coding is identical to that in (FIG. 2A). Red line indicates the TANGO scores (indicated on the left-hand y-axis), with peaks corresponding to APRs. (FIG. 2C) Mapping of mutations in (FIG. 2A) and (FIG. 2B) to the TEM structure (pdb 1xpb). Protein surface is shown in gray, color coding of mutations is identical to (FIG. 2A) and (FIG. 2B). (FIGS. 2D, 2E, and 2F) Temperature-dependent evolution of the Right-Angle Light Scattering (RALS) intensity during a temperature ramp, similar as in FIG. 1F for key mutants of TEM1, namely TEM-10 (FIG. 2D), TEM-30 (FIG. 2E) and TEM-155 (FIG. 2F). Experiments were shown in triplicate, single repeat is shown. (FIG. 2G) Schematic representation of the structure of the peptides. APR—Aggregation Prone Region, R—Arginine. (FIG. 2H) Ribbon representation of the superposition of the crystal structures of TEM (green, pdb id 1bt5) and SHV (blue, pdb id 1shv). The catalytic site of the beta-lactamase activity is indicated and location of APR3 is shown in red. (FIG. 2I) TANGO aggregation score and alignment of APR3 in TEM and SHV. (FIG. 2J) Fractional Inhibitory Concentration Index determination of 5 peptides versus penicillin on E. coli TEM-104. […] FICI values below 0.5 indicate synergy. Values between 0.5 and 1.0 indicate additivity and values greater than 1 indicate indifference between the combined substances. (FIG. 2K) Same as J for E. coli SHV-11. (FIG. 2L) Same as J for a kanamycin resistant E. coli strain. (FIG. 2M) FICI values for the TEM3.2 peptide on a range of E. coli strains.
(§5) Moreover, the core sequence of peptide TEM3.0 also occurs in the structurally related SHV β-lactamase ([…]). Although the C-terminal extension residues H and N have been replaced with physicochemically similar R and Q, respectively (FIG. 2H). […] To quantify the synergy between these four peptides and penicillin G, we performed a so-called checkerboard assay, which allows to compare the activity of two test compounds co-incubated (here peptide and a beta-lactam antibiotic), to their individual activities in isolation. The result from the assay is quantified as the Fractional Inhibitory Concentration Index (FICI), and it is generally accepted that values below 0.5 indicate synergistic effects between the compounds. As a control, we generated a peptide using the same design, but based on a previously identified APR from the β-galactosidase enzyme (BGAL)^16 from E. coli (APR=SVIIWSL, peptide sequence=[…]) that has a MIC value>100 μg/mL on E. coli strain UZ_TEM104. We evaluated the synergy of the peptides with penicillin G in clinical E. coli isolates carrying the TEM ([…]) or SHV enzymes ([…]). […] As a further control, we also performed a checkerboard assay with an E. coli strain that was resistant to the aminoglycoside kanamycin and observed no synergy between this unrelated antibiotic and our peptides (FIG. 2L), in line with the notion that we are inhibiting a beta-lactamase but not the aminoglycoside degrading enzyme. […] The list of strains included some that harbored only TEM or SHV, but others contained additional Ambler Class A (CTX-M or […]) or Class B (VIM and NDM) beta-lactamases. […] In contrast, the presence of the NDM-type […], that does have a high affinity for Ampicillin and that is completely distinct in sequence and structure from TEM and SHV, seemed to completely prevent the effect of the peptide on the beta-lactam sensitivity of the strains in which it occurred (see also further). […]

E. coli TEM-104 = assay: as above; assay type: cell-based; conditions: strain with TEM; FICI below 0.5 = synergy
From the text: as §4, §5

[2] = tested on: SHV beta-lactamase in strain expressing SHV-154; assay: western blot of inclusion body (IB) fraction for SHV; assay type: cell-based, E. coli; conditions: 12 μM peptide in PBS, 120 min
Protocol: as §1, §2, §3

[3] = mouse, in vivo, iv, 5 mg/kg
Protocol: Vehicle alone (0.9% NaCl) was also administered (IV).

SH-SY5Y = assay type: cell-based, human

## Ac-RLTAFLHNRRPRLTAFLHNRR-NH2 [TEM3.0]
[1]
  enrichment of the TEM protein in inclusion bodies (western blot): clear enrichment of the TEM protein in IBs
E. coli SHV-11
  synergy with penicillin G (FICI): not in a strain containing the SHV-11 enzyme
E. coli TEM-104
  synergy with penicillin G (FICI): clear synergy
[2]
  accumulation of the SHV enzyme in inclusion bodies (western blot): not

## Ac-RLTAFLHNRRPRLTAFLRQRR-NH2 [TEM3.2]
[1]
  enrichment of the TEM protein in inclusion bodies (western blot): clear enrichment of the TEM protein in IBs
[3]
  hematologic analysis: no major discrepancies to vehicle treated controls
E. coli SHV-11
  synergy with penicillin G (FICI): synergy
E. coli TEM-104
  synergy with penicillin G (FICI): synergy
SH-SY5Y
  cytotoxicity (Cell Titer Blue): not cytotoxic
[2]
  accumulation of the SHV enzyme in inclusion bodies (western blot): accumulates in IBs
